Like-named read-outs stand apart in the source and are kept apart here.
System: Escherichia coli (ATCC25922) or Staphylococcus aureus (ATCC25923)
Test: Antibacterial MIC, microdilution method in Mueller-Hinton medium
Format: cell-based
Conditions: for MIC: Escherichia coli, 18 h, read-out: Potency (MIC)
How it was run: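 Two-fold serial dilutions from 64 to 0.5 μg/ml, in duplicate, by broth microdilution in Mueller-Hinton medium (NCCLS M7-A5). MIC taken as the lowest concentration preventing visible growth after 18 h at 35° C.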

[1] = MIC in E. coli or S. aureus, two-fold serial dilutions 64 to 0.5 μg/ml in duplicate, 18 hours of incubation at 35° C.

| Compound | MIC [µg/mL] | further results |
| --- | --- | --- |
| COc1nc(Nc2ccc(NC(=O)c3ccc(Cl)cc3)c(O)c2)nc(N2C[C@H](N)C[C@H](N)C2)n1 [4-Chloro-N-{4-[4-((3R,5S)-3,5-diamino-piperidin-1-yl)-6-methoxy-[1,3,5]triazin-2-ylamino]-2-hydroxy-phenyl}-benzamide] | < 16 | – |
| N[C@@H]1C[C@H](N)CN(c2nc(Nc3ccc([N+](=O)[O-])cc3)nc(N3C[C@H](N)C[C@H](N)C3)n2)C1 [N-(4-nitro-phenyl)-4,6-Bis-((3R,5S)-3,5-diamino-piperidin-1-yl)-[1,3,5]triazine-2-amine] | < 64 | – |
| N[C@@H]1C[C@H](N)CN(c2nc(Nc3ccc(NC(=O)c4cccc([N+](=O)[O-])c4O)cc3)nc(N3C[C@H](N)C[C@H](N)C3)n2)C1 [N-[4-(2-hydroxy-3-nitro-benzoylamino)-phenyl]-4,6-Bis-((3R,5S)-3,5-diamino-piperidin-1-yl)-[1,3,5]triazine-2-amine] | > 64 | – |
| CN(C)c1ccc(C(=O)Nc2ccc(Nc3nc(N4C[C@H](N)C[C@H](N)C4)nc(N4C[C@H](N)C[C@H](N)C4)n3)cc2O)c(O)c1 [N-[4-(4-dimethylamino-2-hydroxy-benzoylamino)-3-hydroxy-phenyl]-4,6-Bis-((3R,5S)-3,5-diamino-piperidin-1-yl)-[1,3,5]triazine-2-amine] | < 16 | – |
| N[C@@H]1C[C@H](N)CN(c2nc(Nc3ccc(S(=O)(=O)Nc4ccc5cn[nH]c5c4)cc3)nc(N3CCC[C@@H](O)C3)n2)C1 [4-[4-((3S,5R)-3,5-Diamino-piperidin-1-yl)-6-((R)-3-hydroxy-piperidin-1-yl)-[1,3,5]triazin-2-ylamino]-N-(1H-indazol-6-yl)-benzenesulfonamide] | > 64 | – |
| N[C@@H]1C[C@H](N)CN(c2nc(Nc3ccc(C(=O)CC(=O)Nc4ccc(F)c(F)c4)cc3)nc(N3C[C@@H](N)C[C@H]3CO)n2)C1 [3-{4-[4-((2S,4S)-4-Amino-2-hydroxymethyl-pyrrolidin-1-yl)-6-((3R,5S)-3,5-diamino-piperidin-1-yl)-[1,3,5]triazin-2-ylamino]-phenyl}-N-(3,4-difluoro-phenyl)-3-oxo-propionamide] | < 64 | – |
| CC(C)C(=O)Nc1ccc(Nc2nc(N3C[C@H](N)C[C@H](N)C3)nc(N3C[C@H](N)C[C@H](N)C3)n2)cc1O [N-(3-hydroxy-4-isobutyrylamino-phenyl)-4,6-Bis-((3R,5S)-3,5-diamino-piperidin-1-yl)-[1,3,5]triazine-2-amine] | – | MIC [1]: > 64 µg/mL |
| N[C@@H]1C[C@H](N)CN(c2nc(Nc3ccc(NC(=O)c4ccc5cccnc5c4O)cc3)nc(N3C[C@H](N)C[C@H](N)C3)n2)C1 [N-{4-[(8-hydroxy-quinoline-7-carbonyl)-amino]-phenyl}-4,6-Bis-((3R,5S)-3,5-diamino-piperidin-1-yl)-[1,3,5]triazine-2-amine] | < 16 | – |
| CC(=O)Nc1ccc(Nc2nc(N3C[C@H](N)C[C@H](N)C3)nc(N3C[C@H](N)C[C@H](N)C3)n2)cc1 [drawing 485, N-(4-acetylamino-phenyl)-4,6-Bis-((3R,5S)-3,5-diamino-piperidin-1-yl)-[1,3,5]triazine-2-amine] | < 64 | – |
| NC[C@@H]1C[C@H](N)CN1c1nc(Nc2ccc(C(=O)CC(=O)Nc3ccc(F)c(F)c3)cc2)nc(N2C[C@H](N)C[C@H](N)C2)n1 [3-{4-[4-((2S,4S)-4-Amino-2-aminomethyl-pyrrolidin-1-yl)-6-((3R,5S)-3,5-diamino-piperidin-1-yl)-[1,3,5]triazin-2-ylamino]-phenyl}-N-(3,4-difluoro-phenyl)-3-oxco-propionamide] | – | Potency (MIC) [1]: + (+ means MIC<64 μg/ml in E. coli or S. aureus) |
| N[C@@H]1C[C@H](N)CN(c2nc(Nc3ccc(C(=O)CC(=O)Nc4ccc(Cl)cc4Cl)cc3)nc(N3C[C@H](N)C[C@H](N)C3)n2)C1 [N-{4-[2-(2,4-dichloro-phenylcarbamoyl)-acetyl]-phenyl}-4,6-Bis-((3R,5S)-3,5-diamino-piperidin-1-yl)-[1,3,5]triazine-2-amine] | < 64 | – |
| Cl.Oc1cccc2ccc(Nc3nc(N4CCCCC4)nc(N4CCCCC4)n3)nc12 [N-(8-hydroxy-quinolin-2-yl)-4,6-Bis-((3R,5S)-3,5-diamino-piperidin-1-yl)-[1,3,5]triazine-2-ammine] | – | MIC [1]: > 64 µg/mL |
| N[C@@H]1C[C@H](N)CN(c2nc(Nc3ccc(C(=O)Nc4ccc(Cl)cc4)c(O)c3)nc(N3C[C@H](N)C[C@H](N)C3)n2)C1 [N-[4-(4-chloro-phenylcarbamoyl)-3-hydroxy-phenyl]-4,6-Bis-((3R,5S)-3,5-diamino-piperidin-1-yl)-[1,3,5]triazine-2-amine] | < 64 | – |
| N[C@@H]1C[C@H](N)CN(c2nc(Nc3ccc(C(=O)CC(=O)Nc4cccc(SC(F)(F)F)c4)cc3)nc(N3C[C@H](N)C[C@H](N)C3)n2)C1 [N-{4-[2-(3-trifluoromethylsulfanyl-phenylcarbamoyl)-acetyl]-phenyl}-4,6-Bis-((3R,5S)-3,5-diamino-piperidin-1-yl)-[1,3,5]triazine-2-amine] | < 16 | – |
| N[C@@H]1C[C@H](N)CN(c2nc(Nc3ccc(C(=O)Nc4ccc5c(c4)OCO5)c(O)c3)nc(N3C[C@H](N)C[C@H](N)C3)n2)C1 [N-[4-(benzo[1,3]dioxol-5-ylcarbamoyl)-3-hydroxy-phenyl]-4,6-Bis-((3R,5S)-3,5-diamino-piperidin-1-yl)-[1,3,5]triazine-2-amine] | < 16 | – |
| N[C@@H]1C[C@H](N)CN(c2nc(Nc3ccccc3N3CCOCC3)nc(N3C[C@H](N)C[C@H](N)C3)n2)C1 [N-(2-morpholin-44-yl-phenyl)-4,6-Bis-((3R,5S)-3,5-diamino-piperidin-1-yl)-[1,3,5]triazine-2-amine] | – | MIC [1]: > 64 µg/mL |
| N[C@@H]1C[C@H](N)CN(c2nc(Nc3ccc(S(=O)(=O)Nc4ccc5cn[nH]c5c4)cc3)nc(N3C[C@@H](O)[C@@H](O)C3)n2)C1 [4-[4-((3S,5R)-3,5-Diamino-piperidin-1-yl)-6-((3R,4S)-3,4-dihydroxy-pyrrolidin-1-yl)-[1,3,5]triazin-2-ylamino]-N-(1H-indazol-6-yl)-benzenesulfonamide] | > 64 | – |
| N[C@@H]1C[C@H](N)CN(c2nc(Nc3ccc(N4CCOCC4)cc3)nc(N3C[C@H](N)C[C@H](N)C3)n2)C1 [N-(4-morpholin-4-yl-phenyl)-4,6-Bis-((3R,5S)-3,5-diamino-piperidin-1-yl)-[1,3,5]triazine-2-amine] | > 64 | – |
| N[C@@H]1C[C@H](N)CN(c2nc(NNC(=O)c3ccccc3O)nc(N3C[C@H](N)C[C@H](N)C3)n2)C1 [2-Hydroxy-benzoicacid N′-[4-((3R,5S)-3,5-diamino-piperidin-1-yl)-6-((3S,5R)-3,5-diamino-piperidin-1-yl)-[1,3,5]triazin-2-yl]-hydrazide] | < 64 | – |
| Cc1cc(NC(=O)c2cccc([N+](=O)[O-])c2O)ccc1Nc1nc(N2CCCCC2)nc(N2CCCCC2)n1.Cl [N-[4-(2-hydroxy-3-nitro-benzoylamino)-2-methyl-pphenyl]-4,6-Bis-((3R,5S)-3,5-diamino-piperidin-1-yl)-[1,3,5]triazine-2-amine] | – | MIC [1]: > 64 µg/mL |
| Cl.NC1CCN(c2nc(Nc3ccc(Cl)c(Cl)c3)nc(N3C[C@H](N)C[C@H](N)C3)n2)CC1 [(3R,5S)-1-[4-(4-Amino-piperidin-1-yl)-6-(3,4-dichloro-phenylamino)-[1,3,5]triazin-2-yl]-piperidine-3,5-diamine] | – | MIC [1]: < 64 µg/mL |
